Laboratory results from PubChem BioAssay (NCI).
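Briefly, cells in 96-well plates were exposed to five compound concentrations for 48 h, and endpoints were estimated by linear interpolation. The concentration for 50% growth inhibition is given as GI50. TGI is the concentration that stops growth completely.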

Assays:
Assay in all cases: growth of human tumour cells (NCI), 48 h
A498 renal = tested on: A498 renal
COLO 205 colon = tested on: COLO 205 colon
IGROV1 ovarian = tested on: IGROV1 ovarian
NCI-H23 lung = tested on: NCI-H23 lung
NCI-H522 lung = tested on: NCI-H522 lung
SF-268 CNS = tested on: SF-268 CNS
TK-10 renal = tested on: TK-10 renal
UO-31 renal = tested on: UO-31 renal
MALME-3M melanoma = tested on: MALME-3M melanoma
SNB-75 CNS = tested on: SNB-75 CNS

Compound	GI50 (A498 renal) [µM]	TGI (A498 renal) [µM]	GI50 (COLO 205 colon) [µM]	TGI (COLO 205 colon) [µM]	GI50 (IGROV1 ovarian) [µM]	TGI (IGROV1 ovarian) [µM]	GI50 (NCI-H23 lung) [µM]	TGI (NCI-H23 lung) [µM]	GI50 (NCI-H522 lung) [µM]	TGI (NCI-H522 lung) [µM]	GI50 (SF-268 CNS) [µM]	TGI (SF-268 CNS) [µM]	GI50 (TK-10 renal) [µM]	TGI (TK-10 renal) [µM]	GI50 (UO-31 renal) [µM]	TGI (UO-31 renal) [µM]	TGI (MALME-3M melanoma) [µM]	TGI (SNB-75 CNS) [µM]	GI50 (MALME-3M melanoma) [µM]	GI50 (SNB-75 CNS) [µM]
ClCc1ccc(-c2ccc(Cn3cnc4c(Cl)ncnc43)cc2)cc1	20.5	37	1.82	4.27	3.59	57.2	1.84	3.65	4.01	> 100	1.13	3.51	1.65	3.58	2.29	5.21				
O=C(O)C1C2CCC(O2)C1C(=O)NCc1cccnc1 (stereo unspecified)		> 100		> 100				> 100		> 100				> 100		> 100	> 100	> 100		
Cc1cc2c(C)nn(Cc3ccccc3Cl)c2c(C#N)c1C				> 100		> 100		> 100				> 100		> 100		> 100	> 100	> 100		
Cn1cc(-c2ccc3nnc(C(F)(F)c4ccc5ncccc5c4)n3n2)cn1	24.8	> 100	59.6	> 100	53.8	> 100	66	> 100			50.7	> 100	32.1	> 100	28.4	> 100	> 100	> 92.4	64.1	22.2
C=C1CCC2(C(C)=O)COC1(C)O2 (stereo unspecified)				> 100		> 100		> 10		> 10				> 100		> 100	> 100	> 100		
CCCCCCn1c2c(c3c(O)cccc31)C(=O)c1ccccc1-2	18.9	33.2	38.8	> 100	19.2	39.6	18.4	34.7	17.2	35.9	20.3	40.5	11	24.2	16.1	31.2		> 100		46.3
C1C[S][Ge]2([S]CCS1)[S]CCSCC[S]2	> 100	> 100	> 100	> 100	> 100	> 100	> 100	> 100	> 100	> 100	> 100	> 100			> 100	> 100	> 100	95	> 100	18.9
COc1cc(/C=C2\CC3C4CCC5=CC(=O)CC[C@]5(C)C4CC[C@]3(C)C2=O)ccc1OCCN1CCCCC1 (stereo partly specified)	1.9	12.1	5.34	35.2	11.2	> 100	5.33	25.7	8.95	> 100	4.72	16.4	2.45	6.96	7.87	> 100		24.8		6.97
Cc1cc(C)c(C2=NO[C@@H]3C(=O)N(c4ccc(Cc5ccc(N6C(=O)[C@H]7C(c8c(C)cc(C)cc8C)=NO[C@H]7C6=O)cc5)cc4)C(=O)[C@H]23)c(C)c1		> 100		> 100		> 100		> 100				> 100		> 100		> 100	> 100	> 100		
CCOC(=O)CP(=S)(S)c1ccccc1 (stereo unspecified)		> 100		> 100				> 100		> 100		> 100		> 100		> 100	> 100			
CN1c2ccccc2S(=O)(=O)n2c(COc3ccccc3)nnc21		> 100		> 100		> 100		> 100		> 100		> 100		> 100		> 100				
Cc1cc(C)c(C(=O)/C(=C/c2ccccc2)c2ccccc2)c(C)c1				> 100		> 100		> 100		77.2		> 100		> 100		> 100	> 100	> 100		
Cc1ccc(S(=O)(=O)OC2CSSCC2OS(=O)(=O)c2ccc(C)cc2)cc1 (stereo unspecified)				26.6		32.9		33.3		22.8		31.9		28.9		28.5	34.3	28.1		
CN(CC1NCCCC1O)C12CC3CC(CC(C3)C1)C2 (stereo unspecified)		> 100		> 100		> 100		> 100		> 100		> 100		> 100		> 100	> 100			
O=C(NCCCl)NCc1ccccc1		> 100		> 100		> 100		> 100		> 100		> 100				> 100	> 100	> 100		
COc1cc(OC)c(/C=C/C(=O)c2c(O)cc(OC)c(C3CCN(C)CC3)c2OC)c(OC)c1	1.6	3.02	1.8	3.23			1.41	2.78	1.86	3.31	1.63	3.29			1.36	2.81		2.86		1.39
Cc1ccnc(NC(c2ccccc2)c2ccc3cccnc3c2O)c1 (stereo unspecified)	2.08	9.55	14.3	73.4	2.33	23.3	5.12	> 100			2.93	21.5			1.3	14.6	34.9	> 100	2.89	21.1
O=Cc1cn(S(=O)(=O)c2ccccc2)c2ccccc12		> 100				> 100		85				> 100		> 100		68	> 100	> 100		
